Two molecules from ChEMBL document CHEMBL1944611, “Genistein binding mode to doubly nicked dumbbell DNA. Dynamic and diffusion ordered NMR study” (J Med Chem, 2011) can be followed below.

The structures appear in SMILES notation.

Common to all, as to format: nucleic-acid assay
In assay [1] the test system is Nucleic Acid. Kind of assay: Binding affinity to Doubly nicked dumbbell DNA 5'-TCGAACGC/iSp18/GCTG/3Phos/-3' at 1.4 mM compound concentration and pH 8.4.
Assay [2] deals with Nucleic Acid. Put plainly: Binding affinity to Doubly nicked dumbbell DNA 5'-TCGAACGC/iSp18/GCTG/3Phos/-3' at 1 mM DNA concentration and pH 9.2.
Assay [3] deals with Nucleic Acid. Kind of assay: Binding affinity to Doubly nicked dumbbell DNA 5'-TCGAACGC/iSp18/GCTG/3Phos/-3' at 1 mM DNA concentration and pH 8.4.
Assay [4] relates to Nucleic Acid. Kind of assay: Binding affinity to Doubly nicked dumbbell DNA 5'-TCGAACGC/iSp18/GCTG/3Phos/-3' at 1 mM DNA concentration and pH 8.6.
Assay [5] has as its system Nucleic Acid. Put plainly: Binding affinity to Doubly nicked dumbbell DNA 5'-TCGAACGC/iSp18/GCTG/3Phos/-3' at 1.4 mM compound concentration and pH 9.2.
Assay [6] relates to Nucleic Acid. Put plainly: Binding affinity to Doubly nicked dumbbell DNA 5'-TCGAACGC/iSp18/GCTG/3Phos/-3' at 1 mM compound concentration and pH 8.6.
The subject of assay [7] is Nucleic Acid. Put plainly: Binding affinity to Doubly nicked dumbbell DNA 5'-TCGAACGC/iSp18/GCTG/3Phos/-3' at 1 mM compound concentration and pH 6.
In assay [8] the test system is Nucleic Acid. Kind of assay: Binding affinity to Doubly nicked dumbbell DNA 5'-TCGAACGC/iSp18/GCTG/3Phos/-3' at 1.9 mM DNA concentration and pH 6.

`O=c1c(-c2ccc(O)cc2)coc2cc(O)cc(O)c12`: the Ka was 0.23 mM⁻¹ with Nucleic Acid [1]; 0.31 mM⁻¹ in the assay with Nucleic Acid [2]; 0.57 mM⁻¹ in the assay with Nucleic Acid [3]; 0.77 mM⁻¹ with Nucleic Acid [4]; 0.17 mM⁻¹ in the assay with Nucleic Acid [5]; 0.38 mM⁻¹ with Nucleic Acid [6].

Consider `CN(C)Cc1c(O)c(CN(C)C)c2occ(-c3ccc(O)cc3)c(=O)c2c1O`, for which the Ka is 0.5 mM⁻¹ with Nucleic Acid [7] and 0.71 mM⁻¹ in the assay on Nucleic Acid [8].
